The test has as its target Beta-secretase 1 (Homo sapiens) (UniProt P56817). Nature of the test: Inhibition of recombinant BACE1 (unknown origin) using synthetic dodecapeptide with BACE1 cleavage sequence of Swedish type as substrate at 2 mM after 30 mins.

Chain of Beta-secretase 1 (Homo sapiens) (P56817 whole entry): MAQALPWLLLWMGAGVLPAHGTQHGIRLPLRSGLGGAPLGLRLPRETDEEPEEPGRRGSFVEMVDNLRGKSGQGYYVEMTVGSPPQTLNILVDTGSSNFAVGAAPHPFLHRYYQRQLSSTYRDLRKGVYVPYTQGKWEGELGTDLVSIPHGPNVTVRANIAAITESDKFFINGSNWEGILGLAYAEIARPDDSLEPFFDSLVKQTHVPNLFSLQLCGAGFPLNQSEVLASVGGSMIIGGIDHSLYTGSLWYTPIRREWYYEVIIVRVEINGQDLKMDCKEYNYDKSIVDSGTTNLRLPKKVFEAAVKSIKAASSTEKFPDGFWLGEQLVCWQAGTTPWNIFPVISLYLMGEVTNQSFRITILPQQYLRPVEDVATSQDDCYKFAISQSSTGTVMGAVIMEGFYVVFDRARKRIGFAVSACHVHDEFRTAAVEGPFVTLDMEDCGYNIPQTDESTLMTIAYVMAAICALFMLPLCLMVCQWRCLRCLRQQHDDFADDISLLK

What is called inhibition is the relative decrease from the control value, in per cent. As to `COc1cccc(C(O)CCCCc2ccc(NC(C)=O)nc2)c1` (stereo unspecified), the inhibition was 20%.

For `COc1cccc(CCCCc2cccc(NC(C)=O)n2)c1`, the inhibition was 21%.

As to `COc1cccc(C(O)CCc2cccnc2NC(C)=O)c1` (stereo unspecified), the inhibition turned out to be 18%.

On to `COc1cccc(C(O)CCCCc2cccc(NC(C)=O)n2)c1` (stereo unspecified), for which the inhibition stood at 56%.

As to `COCOc1ccc(C(=O)Nc2ccc(CCCCC(O)c3cccc(OC)c3)cn2)cc1` (stereo unspecified), the inhibition was 19%.

`COc1cccc(CCCCc2ccc(NC(C)=O)nc2)c1`: the inhibition was 20%.

Source of the values: ChEMBL document CHEMBL3632491, “Synthesis and evaluation of aminopyridine derivatives as potential BACE1 inhibitors” (Bioorg Med Chem Lett, 2015).
